Where a name gives a salt, the structure may show the parent alone.

The subject of the first experiment is P. mirabilis 889. The experiment can be described thus: MIC against P. mirabilis 889. It counts as cell-based, Proteus mirabilis.
Settings: not given
The source says:
The antibiotic compounds of the present invention are active against a wide range of gram negative and gram positive organisms including E. coli such as, for example ESS, JT4, JT425 and NCTC 10418; Pseudomonas Spp. such Ps.aeruginosa for example 10662 and Dalgleish; Serratia marcescens US32; Klebsiella aerogenes A; Enterobacter cloacae N1; P.mirabilis such as, for example C977 and 889; P.morganii, P.rettgeri; B.subtilis; Staph aureus such as, for example Oxford and Russell; N.catarrhalis 1502; Strep faecalis I; β-Haemolytic Strep CN10. The MIC data included in the following examples is representative of the activity of the compounds of the present invention.
In the case of `CCN1CCN(C(=O)N[C@@H](C(=O)N[C@]2(NC=O)C(=O)N3C(C(=O)O)=C(COC(C)=O)C[S+]([O-])[C@@H]32)c2ccc(OC(C)=O)c(OC(C)=O)c2)C(=O)C1=O` (single isomer, unassigned) [Example 1 Isomer A, Sodium 7β-[D-2-[(4-ethyl-2,3-dioxopiperazin-1-yl)carbonylamino]-2-(3,4-diacetoxyphenyl)acetamido]-7α-formamidocephalosporanate-1-oxide], the “MIC against P. mirabilis 889” value is 0.5 mg/L.

Consider `CCN1CCN(C(=O)N[C@@H](C(=O)N[C@]2(NC=O)C(=O)N3[C@@H](C(=O)O)C(C)(C)[S+]([O-])[C@@H]32)c2ccc(OC(C)=O)c(OC(C)=O)c2)C(=O)C1=O` (single isomer, unassigned; isomer b) [Example 18, Sodium 6β-[D-2-[(4-ethyl-2,3-dioxopiperazin-1-yl)carbonylamino]-2-(3,4-diacetoxyphenyl)acetamido]-6α-formamidopenicillanate-1-oxide, Isomer B], for which the “MIC against P. mirabilis 889” value amounted to 0.5 mg/L.

On to `CCN1CCN(C(=O)N[C@@H](C(=O)N[C@]2(NC=O)C(=O)N3C(C(=O)O)=C(CSc4nnnn4C)C[S+]([O-])[C@@H]32)c2ccc(OC(C)=O)c(OC(C)=O)c2)C(=O)C1=O` (single isomer, unassigned) [Example 5 Isomer B, Sodium 7β-[D-2-(3,4-diacetoxyphenyl)-2-[(4-ethyl-2,3-dioxopiperazin-1-yl)carbonylamino]acetamido]-7α-formamido-3-[(1-methyl-1H-tetrazol-5-yl)thiomethyl]-ceph-3-em-4-carboxylate-1-oxide], for which the “MIC against P. mirabilis 889” value was found to be 0.06 mg/L.

The experiment is the same for the next values; noted with them: Proteus mirabilis, 889.
On to `CCN1CCN(C(=O)N[C@@H](C(=O)N[C@]2(NC=O)C(=O)N3C(C(=O)O)=C(CSc4nnnn4CC(=O)O)C[S@+]([O-])[C@@H]32)c2ccc(OC(C)=O)c(OC(C)=O)c2)C(=O)C1=O` (single isomer, unassigned) [Example 15 Isomer A, 3-[(1-Carboxymethyl-1H-tetrazol-5-yl)thiomethyl]-7β-[D-2(3,4-diacetoxyphenyl)-2-[(4-ethyl-2,3-dioxopiperazin-1-yl)carbonylamino]acetamido]-7α-formamidoceph-3-em-4-carboxylic acid-1-oxide, disodium salt], for which the MIC – broadly, the lowest concentration found to suppress growth – worked out at 0.5 mg/L.

In turn, `CCN1CCN(C(=O)N[C@@H](C(=O)N[C@]2(NC=O)C(=O)N3C(C(=O)O)=C(CSc4nnnn4C)C[S@+]([O-])[C@@H]32)c2ccc(O)c(O)c2)C(=O)C1=O` [Example 16(d), Sodium 7β-[D-2-(3,4-dihydroxyphenyl)-2-[(4-ethyl-2,3-dioxopiperazin-1-yl)carbonylamino]acetamido]-7α-formamido-3-[(1-methyl-1H-tetrazol-5-yl)thiomethyl]-ceph-3-em-4-carboxylate-1β-oxide] showed an MIC of 1 mg/L.

With `CC(=O)OCC1=C(C(=O)O)N2C(=O)[C@@](NC=O)(NC(=O)Cc3cccs3)[C@H]2[S@@+]([O-])C1` [Example 27(b), Sodium 7α-Formamido-7β-thien-2-ylacetamidocephalosporanate-1β-oxide], the lowest concentration to inhibit growth (MIC) was 8 mg/L.

Consider `CCN1CCN(C(=O)N[C@@H](C(=O)N[C@]2(NC=O)C(=O)N3C(C(=O)O)=C(COC(C)=O)C[S@+]([O-])[C@@H]32)c2ccc(O)cc2)C(=O)C1=O` (single isomer, unassigned) [Example 14 Isomer A, 7β-[D-2-[(4-Ethyl-2,3-dioxopiperazin-1-yl)carbonylamino]-2-(4-hydroxyphenyl)acetamido]-7α-formamidocephalosporanic acid 1-oxide, sodium salt], for which the MIC came out at 0.25 mg/L.

The compound `CC(=O)OCC1=C(C(=O)O)N2C(=O)[C@@](NC=O)(NC(=O)Cc3cccs3)[C@H]2[S@+]([O-])C1` [Example 27(c), Sodium 7α-Formamido-7β-thien-2-ylacetamidocephalosporanate-1α-oxide] came in with an MIC of 2 mg/L.

Turning to `CCN1CCN(C(=O)N[C@@H](C(=O)N[C@]2(NC=O)C(=O)N3C(C(=O)O)=C(CSc4nnnn4CC(=O)O)C[S@@+]([O-])[C@@H]32)c2ccc(OC(C)=O)c(OC(C)=O)c2)C(=O)C1=O` (single isomer, unassigned) [Example 15 Isomer B, 3-[(1-Carboxymethyl-1H-tetrazol-5-yl)thiomethyl]-7β-[D-2(3,4-diacetoxyphenyl)-2-[(4-ethyl-2,3-dioxopiperazin-1-yl)carbonylamino]acetamido]-7α-formamidoceph-3-em-4-carboxylic acid-1-oxide, disodium salt], inhibition of growth (MIC) required 0.25 mg/L.

Compound `CCN1CCN(C(=O)N[C@@H](C(=O)N[C@]2(NC=O)C(=O)N3C(C(=O)O)=C(CSc4nnnn4C)C[S@+]([O-])[C@@H]32)c2ccccc2)C(=O)C1=O` [Example 8(e), Sodium 7β-[D-2-[(4-Ethyl-2,3-dioxopiperazin-1-yl)carbonylamino]-2-phenylacetamido]-7α-formamido-3-[(1-methyl-1H-tetrazol-5-yl)thiomethyl]ceph-3-em-4-carboxylate-1β-oxide] returned an MIC of 0.5 mg/L.

For `CCN1CCN(C(=O)N[C@@H](C(=O)N[C@]2(NC=O)C(=O)N3[C@@H](C(=O)O)C(C)(C)[S+]([O-])[C@@H]32)c2ccc(OC(C)=O)c(OC(C)=O)c2)C(=O)C1=O` (stereo partly drawn) [Example 4, Sodium 6β-[D-2-[(4-ethyl-2,3-dioxopiperazin-1-yl)carbonylamino]-2-(3,4-diacetoxyphenyl)acetamido]-6α-formamidopenicillanate-1-oxide], the MIC was found to be 0.12 mg/L.
